The source of these data is article PMC9078765, “Utilizing Network Pharmacology and Molecular Docking Integrated Surface Plasmon Resonance Technology to Investigate the Potential Targets and Mechanisms of Tripterygium wilfordii against Pulmonary Artery Hypertension” (Evidence-based Complementary and Alternative Medicine : eCAM, 2022).

The target of the assay is T1, CASP3 (Casp3) (Homo sapiens, UniProt P42574).
T1 construct: commercial recombinant protein, captured on Ni-NTA chip (His tag implied)
T1 sequence (P42574 29-175): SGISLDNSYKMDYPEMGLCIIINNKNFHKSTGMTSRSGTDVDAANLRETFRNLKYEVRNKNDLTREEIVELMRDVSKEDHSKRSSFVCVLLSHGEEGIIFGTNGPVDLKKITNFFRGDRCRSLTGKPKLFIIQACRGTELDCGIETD
T1 sequence (P42574 176-277): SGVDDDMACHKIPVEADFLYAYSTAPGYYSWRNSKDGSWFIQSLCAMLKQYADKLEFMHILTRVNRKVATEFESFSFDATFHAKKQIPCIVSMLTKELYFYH
Briefly: SPR (OpenSPR, NTA chip, one-to-one model). The format is binding. The source says:
SPR (OpenSPR, NTA chip, one-to-one model) on CASP3 (Casp3)

As a reminder, the Kd is the concentration at which binding is half-saturated. High values mean weaker binding, low ones tighter binding. `O=c1c(O)c(-c2ccc(O)cc2)oc2cc(O)cc(O)c12` [Kaempferol]: binding was put at a Kd of 7.65 µM. This lies in the single-digit micromolar range.
